Results taken from ChEMBL document CHEMBL1133149, “Synthesis and biological evaluation of analogues of bacterial lipid I” (Bioorg Med Chem Lett, 2000).
Converted amounts (≈) assume the structure as drawn. Each block holds one compound with its values, some of them ahead of it.

Tests used:
[1] = (§1) Compound was evaluated for its ability to inhibit MurG enzyme for the conversion of Lipid I to lipid II in coupled MraY/MurG assay; NI is No Inhibition at 234 ug/mL; parameters: species or system Escherichia coli
Escherichia coli [2] = test: Compound was evaluated for its ability to inhibit the formation of peptidoglycan by incorporation of [14C]GlcNAc into TCA insoluble, filter-capturable material; NI is No Inhibition at 200 ug/mL; type: functional, organism-based
Escherichia coli [3] = test: Compound was evaluated for its ability to inhibit MurG enzyme for the conversion of Lipid I to lipid II in the coupled MraY/MurG assay; NI is No inhibition at 238 ug/mL
Escherichia coli [4] = test: Compound was evaluated for its ability to inhibit MraY enzyme for the conversion of Lipid I to lipid II in the coupled MraY/MurG assay; Ni is No Inhibition at 238 ug/mL
[5] = Compound was evaluated for its ability to inhibit MurG enzyme for the conversion of Lipid I to lipid II in MurG enzyme assay; parameters: species or system Escherichia coli
[6] = Compound was evaluated for its ability to inhibit MraY enzyme for the conversion of Lipid I to lipid II in coupled MraY/MurG assay; NI is No Inhibition at 234 ug/mL; parameters: species or system Escherichia coli
Escherichia coli [7] = test: Compound was evaluated for its ability to inhibit MraY enzyme for the conversion of Lipid I to lipid II in the coupled MraY/MurG assay; Ni is No Inhibition at 234 ug/mL
Escherichia coli [8] = test: as §1
Escherichia coli [9] = test: Compound was evaluated for its ability to inhibit MurG enzyme for the conversion of Lipid I to lipid II in MurG enzyme assay; NI is No Inhibition at 234 ug/mL
Escherichia coli [10] = test: Compound was evaluated for its ability to inhibit MraY enzyme for the conversion of Lipid I to lipid II in the coupled MraY/MurG assay; Ni is No Inhibition at 256 ug/mL
Escherichia coli [11] = test: Compound was evaluated for its ability to inhibit MurG enzyme for the conversion of Lipid I to lipid II in MurG enzyme assay; NI is No Inhibition at 256 ug/mL
Escherichia coli [12] = test: Compound was evaluated for its ability to inhibit MurG enzyme for the conversion of Lipid I to lipid II in coupled MraY/MurG assay; NI is No Inhibition at 256 ug/mL

IC50 [1]: < 1 µg/mL
Compound: RAMOPLANIN

Activity (Escherichia coli [7]): No inhibition | Activity (Escherichia coli [8]): No inhibition | Activity (Escherichia coli [9]): No inhibition
Compound: CC(=O)NC1C(Sc2ccccc2)OC(CO)C(O)C1O[C@@H](C)C(=O)N[C@@H](C)C(=O)N[C@H](CCC(=O)N[C@@H](CCCCN)C(=O)N[C@H](C)C(=O)N[C@H](C)C(=O)O)C(=O)O (some centres undefined)
Activity (Escherichia coli [2]): No inhibition

Activity (Escherichia coli [10]): No inhibition | Activity (Escherichia coli [11]): No inhibition | Activity (Escherichia coli [12]): No inhibition
Compound: COC1OC(CO)C(O)C(O[C@@H](C)C(=O)N[C@@H](C)C(=O)N[C@H](CCC(=O)N[C@@H](CCCCN)C(=O)N[C@H](C)C(=O)N[C@H](C)C(=O)O)C(=O)O)C1NC(C)=O (some centres undefined)
Activity (Escherichia coli [2]): No inhibition

The next lines start with the compound.

Compound: CC(=O)NC1C(OP(=O)(O)O)OC(CO)C(O)C1O[C@@H](C)C(=O)N[C@@H](C)C(=O)N[C@H](CCC(=O)N[C@@H](CCCCN)C(=O)N[C@H](C)C(=O)N[C@H](C)C(=O)O)C(=O)O (some centres undefined)
Activity (Escherichia coli [2]): No inhibition | Activity (Escherichia coli [3]): No inhibition | Activity (Escherichia coli [4]): No inhibition | IC50 [5]: 50 µg/mL (≈ 59.3 µM)

Compound: CC(=O)N[C@H]1[C@@H](O[C@@H]2O[C@H](CC(O)[C@H]3O[C@@H](n4ccc(=O)[nH]c4=O)[C@H](O)[C@@H]3O)[C@H](O)[C@H](O)[C@H]2NC(=O)/C=C/CC(C)C)O[C@H](CO)[C@@H](N)[C@@H]1O (some centres undefined) [TUNICAMYCIN]
IC50 [6]: < 1 µg/mL
